Measured values taken from patent US20260376293A1, “METHODS FOR STUDYING GPR158 PHARMACOLOGY AND IDENTIFICATION OF ITS LIGANDS” (UNIVERSITY OF FLORIDA RESEARCH FOUNDATION, INCORPORATED, priority 2022, published 2026).

Molecular target: T1, GPR158 (Homo sapiens, UniProt Q5T848)
T1 construct: expressed in transfected cells; host or cells: HEK293T/17
T1 sequence (Q5T848 24-1215): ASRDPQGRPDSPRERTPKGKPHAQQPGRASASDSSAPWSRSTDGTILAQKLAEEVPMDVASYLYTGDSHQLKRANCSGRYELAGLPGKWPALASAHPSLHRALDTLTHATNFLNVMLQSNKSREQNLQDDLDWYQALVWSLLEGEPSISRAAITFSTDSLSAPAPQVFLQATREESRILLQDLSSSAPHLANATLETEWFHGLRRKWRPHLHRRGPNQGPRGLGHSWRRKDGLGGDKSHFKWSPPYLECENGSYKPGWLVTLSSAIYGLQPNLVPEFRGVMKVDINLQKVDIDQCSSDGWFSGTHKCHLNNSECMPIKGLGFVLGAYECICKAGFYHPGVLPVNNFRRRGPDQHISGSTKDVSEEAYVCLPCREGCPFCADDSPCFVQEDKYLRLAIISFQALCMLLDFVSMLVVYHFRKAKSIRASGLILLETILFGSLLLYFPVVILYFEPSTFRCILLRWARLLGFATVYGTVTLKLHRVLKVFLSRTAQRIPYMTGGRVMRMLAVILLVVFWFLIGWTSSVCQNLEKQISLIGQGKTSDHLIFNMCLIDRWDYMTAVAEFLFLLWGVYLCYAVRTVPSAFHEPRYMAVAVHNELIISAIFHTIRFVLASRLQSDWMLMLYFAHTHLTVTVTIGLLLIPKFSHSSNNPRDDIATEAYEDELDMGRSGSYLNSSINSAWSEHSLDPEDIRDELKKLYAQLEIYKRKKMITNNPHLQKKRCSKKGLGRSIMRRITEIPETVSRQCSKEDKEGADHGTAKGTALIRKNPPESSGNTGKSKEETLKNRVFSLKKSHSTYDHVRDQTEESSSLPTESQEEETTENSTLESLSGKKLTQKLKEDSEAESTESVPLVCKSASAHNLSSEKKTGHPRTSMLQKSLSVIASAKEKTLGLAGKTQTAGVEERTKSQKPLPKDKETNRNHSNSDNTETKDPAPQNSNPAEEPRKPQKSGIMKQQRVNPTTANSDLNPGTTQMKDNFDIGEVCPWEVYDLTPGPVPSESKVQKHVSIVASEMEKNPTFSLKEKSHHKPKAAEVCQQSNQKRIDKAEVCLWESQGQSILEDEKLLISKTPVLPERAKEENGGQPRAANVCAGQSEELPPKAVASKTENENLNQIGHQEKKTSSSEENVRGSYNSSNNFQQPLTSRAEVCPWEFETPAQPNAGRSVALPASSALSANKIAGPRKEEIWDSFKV
T1 sequence (P49802 1-495 partner): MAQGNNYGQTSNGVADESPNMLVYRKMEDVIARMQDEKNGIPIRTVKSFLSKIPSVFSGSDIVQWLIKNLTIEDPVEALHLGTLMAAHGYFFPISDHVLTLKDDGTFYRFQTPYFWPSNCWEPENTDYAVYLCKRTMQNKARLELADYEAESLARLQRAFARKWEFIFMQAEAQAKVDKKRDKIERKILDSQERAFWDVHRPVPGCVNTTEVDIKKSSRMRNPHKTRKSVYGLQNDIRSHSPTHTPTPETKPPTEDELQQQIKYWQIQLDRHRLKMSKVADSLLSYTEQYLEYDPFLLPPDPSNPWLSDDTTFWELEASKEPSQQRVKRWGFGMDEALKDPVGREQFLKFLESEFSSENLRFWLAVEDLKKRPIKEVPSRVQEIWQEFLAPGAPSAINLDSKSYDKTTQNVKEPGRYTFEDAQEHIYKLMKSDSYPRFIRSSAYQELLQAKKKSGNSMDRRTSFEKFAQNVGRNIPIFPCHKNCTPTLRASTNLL
T1 sequence (O14775 1-395 partner): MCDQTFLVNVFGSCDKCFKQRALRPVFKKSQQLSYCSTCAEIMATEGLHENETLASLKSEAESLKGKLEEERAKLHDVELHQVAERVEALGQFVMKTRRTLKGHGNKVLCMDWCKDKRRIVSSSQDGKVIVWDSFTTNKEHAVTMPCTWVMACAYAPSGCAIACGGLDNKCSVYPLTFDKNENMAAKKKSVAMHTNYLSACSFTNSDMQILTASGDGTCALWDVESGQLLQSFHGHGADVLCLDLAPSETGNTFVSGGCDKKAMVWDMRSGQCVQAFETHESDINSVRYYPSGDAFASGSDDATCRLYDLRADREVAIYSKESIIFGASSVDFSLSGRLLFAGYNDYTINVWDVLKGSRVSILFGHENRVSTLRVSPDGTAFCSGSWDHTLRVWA
Assay: cADDIS fluorescence-based cAMP assay, HEK293T/17 cells
Assay type: cell-based
Conditions: 500 μM Gly, 15 min, forskolin; GPR158-RGS7/Gβ5, HEK293T/17
Procedure: B. Effect of Gly on cAMP levels measured using CADDIS assay in HEK293T/17 cells (Gly conc. 500 μM). Binding of Gly to Cache domain of GPR158 blocks the GAP activity of GPR158-RGS7/Gβ5 complex on Gαo, resulting in lowering of CAMP levels. Data shown here represent the normalized fluorescence intensity upon Gly treatment (Mean±SEM from 3 independent experiments, Unpaired t-test, **p=0.0016)
In an effort to study the modulatory effects of Gly on CAMP through GPR158, the inventors took advantage of a fluorescence-based cAMP sensor cADDIS (Montana molecular) which involves Bacmam virus-based transduction of sensor into the cells (FIG. 17A).
Briefly, HEK293T/17 cells were co-transfected with plasmids for GPR158, RGS7 and Gβ5 (150 μg/ml, GPR158: RGS7: Gβ5:4:1:1) by electroporation (Maxcyte). […] Before Glycine treatment, baseline fluorescence intensity was recorded using a fluorescence intensity module (FI Ex: 485 nm, Em: 520 nm) in Pherastar FSX microplate reader (BMG Labtech) followed by forskolin treatment for 15 min. Subsequently, the cells were treated with 500 μM Gly and fluorescence intensity was recorded. […]
The cADDIS assay for Gαi results in increase in fluorescence when CAMP is decreasing in the cells after drug treatment.

NCC(=O)O [glycine]
cADDIS fluorescence change (cAMP decrease): significant increase in fluorescence
